Measured values published in patent US6949566B2, “Thiazole and oxazole derivatives” (Shionogi & Co. Ltd., priority 2000, dated 2005).

Legend:
Assay type in all cases: biochemical
MMP-2 = target: T1, MMP-2 (Homo sapiens, UniProt P08253); assay: Assay for inhibitory activities on MMPs (fluorogenic peptide substrate), MMP-2; conditions: purchased MMP-2; substrate MOCAc-Pro-Leu-Gly-Leu-A2Pr(DNP)-Ala-Arg-NH2
T1 construct: purchased Calbiochem-Novabiochem International, Inc
T1 sequence (P08253 110-660): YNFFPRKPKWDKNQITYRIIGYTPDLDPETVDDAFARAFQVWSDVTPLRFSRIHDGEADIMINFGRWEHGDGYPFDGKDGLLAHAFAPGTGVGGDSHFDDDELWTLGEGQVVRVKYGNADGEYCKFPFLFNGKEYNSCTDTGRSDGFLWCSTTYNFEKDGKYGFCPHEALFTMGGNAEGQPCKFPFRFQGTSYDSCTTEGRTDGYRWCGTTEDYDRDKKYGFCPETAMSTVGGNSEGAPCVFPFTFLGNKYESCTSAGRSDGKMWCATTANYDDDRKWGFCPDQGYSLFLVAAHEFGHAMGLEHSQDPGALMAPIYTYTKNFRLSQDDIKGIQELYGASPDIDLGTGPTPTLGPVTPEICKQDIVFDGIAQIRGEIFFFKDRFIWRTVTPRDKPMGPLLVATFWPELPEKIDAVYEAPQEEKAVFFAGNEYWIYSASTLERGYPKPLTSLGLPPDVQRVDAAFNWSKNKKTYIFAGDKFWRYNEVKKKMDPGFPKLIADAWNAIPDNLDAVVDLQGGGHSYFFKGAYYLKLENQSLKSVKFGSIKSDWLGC
Description: MMP-2 was purchased from Calbiochem-Novabiochem International, Inc.
(§1) The enzymatic activity on MMPs was analyzed by the method described in “C. Graham Knight, Frances Willenbrock and Gillian Murphy: A novel coumarin-labelled peptide for sensitive continuous assays of the matrix metalloproteinases: FEBS LETT., 296, (1992), 263-266”. The substrate MOCAc-Pro-Leu-Gly-Leu-A2Pr(DNP)-Ala-Arg-NH2 was purchased from Peptide Institute, Inc., Osaka, Japan. The measurement of the inhibitory activities (IC50) was carried out by the following four methods;
(§2) (A) Reaction with substrate, enzyme (MMPs) and inhibitor
(§3) (B) Reaction with substrate and inhibitor, without enzyme
(§4) (C) Reaction with substrate and enzyme (MMPs), without inhibitor
(§5) (D) Reaction with substrate only
(§6) IC50 values were calculated by using the following formula and each fluorescence values of above four methods (A to D). % inhibition={1−(A−B)/(C−D)}×100 IC50 means the concentration required to inhibit 50% of the enzyme activity.

MMP-8 = target: T2, MMP-8 (Homo sapiens, UniProt P22894); assay: Assay for inhibitory activities on MMPs (fluorogenic peptide substrate), MMP-8; conditions: catalytic domain 99Phe-262Gly; substrate MOCAc-Pro-Leu-Gly-Leu-A2Pr(DNP)-Ala-Arg-NH2
T2 construct: catalytic domain (^99Phe˜^262Gly) was amplified with PCR; His-tag; enterokinase digestion-site; made in house; host or cells: Escherichia coli
T2 sequence (P22894 99-262): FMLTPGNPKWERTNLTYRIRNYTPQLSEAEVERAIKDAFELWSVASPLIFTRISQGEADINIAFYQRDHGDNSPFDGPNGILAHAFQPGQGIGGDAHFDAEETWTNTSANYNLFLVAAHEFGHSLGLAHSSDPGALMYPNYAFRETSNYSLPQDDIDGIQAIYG
Excerpt: In regard to MMP-8, catalytic domain (^99Phe˜^262Gly) was amplified with PCR using commercial available Human Bone Marrow cDNA. This was cloned in Escherichia. coli expression vector pTrc99AHE inserted with His-tag sequence and enterokinase digestion-site, induced and expressed by IPTG (Isopropyl-β-D-thiogalactopyranoside) and expressed in a insoluble fraction (Thau F. Ho, M. Walid Qoronfleh, Robert C. Wahl, Trica A. Pulvino, Karen J. Vavra, Joe Falvo, Tracey M. Banks, Patricia G. Brake and Richard B. Ciccarelli: Gene expression, purification and characterization of recombinant human neutrophil collagenase. Gene 146, (1994) 297-301, Prepared by the a improved method of this material). Isolation of MMP-8 from an insoluble fraction was carried out by dissolving in modifier (6M urea) by a usual method and purification with metal chelate chromatography. And then removing modifier (6M urea) with dialysis and refolding of the enzyme spontaneously gave activated MMP-8.
as §1, §2, §3, §4, §5, §6

MMP-9 = target: T3, MMP-9 (Homo sapiens, UniProt P14780); assay: Assay for inhibitory activities on MMPs (fluorogenic peptide substrate), MMP-9; conditions: MMP-9 from HT1080 cells, activated by TPCK-Trypsin; substrate MOCAc-Pro-Leu-Gly-Leu-A2Pr(DNP)-Ala-Arg-NH2
T3 construct: endogenous in cells; host or cells: HT1080 human fibrosarcoma cells, TPA-stimulated; enzyme purified from conditioned medium
T3 sequence (P14780 107-707 limits assumed): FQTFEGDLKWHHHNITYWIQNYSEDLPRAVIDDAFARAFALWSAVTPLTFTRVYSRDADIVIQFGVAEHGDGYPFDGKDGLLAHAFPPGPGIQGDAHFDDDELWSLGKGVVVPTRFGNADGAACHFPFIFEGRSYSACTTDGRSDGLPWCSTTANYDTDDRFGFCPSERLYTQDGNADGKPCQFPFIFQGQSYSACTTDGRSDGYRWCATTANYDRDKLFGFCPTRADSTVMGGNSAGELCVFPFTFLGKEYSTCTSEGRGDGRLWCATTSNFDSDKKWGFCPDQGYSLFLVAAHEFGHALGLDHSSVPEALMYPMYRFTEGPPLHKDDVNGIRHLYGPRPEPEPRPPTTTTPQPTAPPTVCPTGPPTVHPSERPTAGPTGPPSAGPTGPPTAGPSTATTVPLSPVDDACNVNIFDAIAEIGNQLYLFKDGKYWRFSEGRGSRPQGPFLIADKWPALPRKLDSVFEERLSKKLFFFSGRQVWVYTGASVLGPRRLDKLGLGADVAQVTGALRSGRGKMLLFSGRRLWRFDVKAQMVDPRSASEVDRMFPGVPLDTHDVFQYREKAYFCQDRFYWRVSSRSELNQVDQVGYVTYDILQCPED
Excerpt: MMP-9 was isolated and purified by procedures described in as follows: Yasunori Okada, Yukio Gonoji, Katsumi Naka, Katsuro Tomita, Isao Nakanishi, Kazushi Iwata, Kyoko Yamashita, and Taro Hayakawa: Matrix metalloproteinase 9 (92-kDa gelatinase/type IV collagenase) from HT1080 human fibrosarcoma cells. Purification and activation of the precursor and enzymic properties J. Biol. Chem., 1992, 267 21712-21719, in combination with others: 1)Yasunori Okada, Tatsuhisa Morodomi, Jan J, Enghild, ko Suzuki, Atsushi Yasui, Isao Nakanishi, Guy Salvesen and Hideaki Nagase: Matrix metalloproteinase 2 from human rheumatoid synovial fibroblasts. Purification and activation of the precursor and enzymic properties. Eur. J. Biochem. 1990, 194 721-730; 2)Robin V Ward, Rosalind M Hembry, John J Reynolds and Gillian Murphy: The purification of tissue inhibitor of metalloproteinase-2 from its 72 kDa progelatinase complex. Biochem. J. 1991 278 179-187. In detail, human fibrosarcoma ATCC HT1080 cell line was cultured to confluent in Dulbecco's Modified Medium (DMEM) containing 10% fetal-calf serum at 37° C. for 48 hours. Subsequently, the medium of confluent culture was changed to serum-free DMEM medium. To obtain MMP-9, Phorbol-12-myristate-13-acetate (TPA) must be added to this serum-free DMEM medium at a concentration of 50 ng/ml. The TPA treated medium was centrifuged at 3000 rpm for 15 min and the supernatant was concentrated to 450 ml by a Toyo-Roshi UP-20 apparatus with an ultrafiltration membrane. Then, proMMP-9 in this concentrated solution was purified by using columns of Gelatin-Sepharose and Concanavalin A-Sepharose. The pool containing proMMP-9 was dialyzed, concentrated (Toyo-Roshi UP-20) and applied to columns of Sephacryl S-200 and Green A matrix for the separation from TIMPs. The obtained proMMP-9 fraction was activated by TPCK-Trypsin (Final conc. 3 μg/501 μl React Mix.).
as §1, §2, §3, §4, §5, §6

MMP-12 = target: T4, MMP-12 (Homo sapiens, UniProt P39900); assay: Assay for inhibitory activities on MMPs (fluorogenic peptide substrate), MMP-12; conditions: catalytic domain 100Phe-263Gly; substrate MOCAc-Pro-Leu-Gly-Leu-A2Pr(DNP)-Ala-Arg-NH2
T4 construct: catalytic domain(^100Phe˜^263Gly) was amplified with RT-PCR; His-tag; enterokinase digestion-site; made in house; host or cells: Escherichia coli
T4 sequence (P39900 100-263): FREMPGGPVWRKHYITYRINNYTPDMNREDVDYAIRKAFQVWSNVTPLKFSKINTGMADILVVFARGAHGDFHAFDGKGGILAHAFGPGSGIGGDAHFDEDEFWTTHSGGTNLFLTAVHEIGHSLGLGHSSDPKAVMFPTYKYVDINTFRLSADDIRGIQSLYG
Description: (§7) In regard to MMP-12, catalytic domain(^100Phe˜^263Gly) was amplified with RT-PCR from Human Placenta Total RNA. This was cloned in Escherichia. coli expression vector pTrc99AHE inserted with His-tag sequence and enterokinase digestion-site, induced and expressed by IPTG (Isopropyl-β-D-thiogalactopyranoside) and expressed in a insoluble fraction. Isolation of MMP-12 from an insoluble fraction was carried out by dissolving in modifier (6M urea) by a usual method and purification with metal chelate chromatography (Ni Chelateing Sepharose). And then removing modifier (6M urea) with dialysis and refolding of the enzyme spontaneously gave activated MMP-12.
as §1, §2, §3, §4, §5, §6

MMP-13 = target: T5, MMP-13 (Homo sapiens, UniProt P45452); assay: Assay for inhibitory activities on MMPs (fluorogenic peptide substrate), MMP-13; conditions: catalytic domain 104Tyr-267Gly; substrate MOCAc-Pro-Leu-Gly-Leu-A2Pr(DNP)-Ala-Arg-NH2
T5 construct: catalytic domain (^104Tyr˜^267Gly) was amplified with RT-PCR; His-tag; enterokinase digestion-site; made in house; host or cells: Escherichia coli
Description: as §7, with “MMP-13, mRNA was prepared from carcinoma cell SW1353 derived from human cartilage stimulate by IL-1, TNF and” for “MMP-12,”, “domain (^104Tyr˜^267Gly)” for “domain(^100Phe˜^263Gly)”, “RT-PCR.” for “RT-PCR from Human Placenta Total RNA.”, “MMP-13” for “MMP-12”, “dialyze” for “dialysis”, “MMP-13.” for “MMP-12.”
as §1, §2, §3, §4, §5, §6

Row | SMILES | IC50 (MMP-2) [nM] | IC50 (MMP-8) [nM] | IC50 (MMP-9) [nM] | IC50 (MMP-12) [nM] | IC50 (MMP-13) [nM]
1 | COc1ccc(-c2cnc(-c3ccc(S(=O)(=O)N[C@H](C)C(=O)O)cc3)s2)cc1 [Compound B-23] | 0.479 | 15.4 | 16.2 | 1.37 | 2.04
2 | CSCC[C@@H](NS(=O)(=O)c1ccc(-c2ncc(-c3ccc(Cl)cc3)s2)cc1)C(=O)O [Compound B-46] | 1.17 | 57 | 24 | 1.08 | 11
3 | C[C@@H](NS(=O)(=O)c1ccc(-c2ncc(-c3ccc(F)cc3)s2)cc1)C(=O)O [Compound B-27] | 0.901 | 25.2 | 13.3 | 3.29 | 15.3
4 | C[C@@H](NS(=O)(=O)c1ccc(-c2ncc(-c3ccc4ccccc4c3)o2)cc1)C(=O)O [Compound A-46] | 7.16 | 279 | 157 | 2.25 | 19
5 | CC(C)[C@@H](NS(=O)(=O)c1ccc(-c2ncc(-c3ccc(Br)cc3)o2)cc1)C(=O)O [Compound A-27] | 6.08 | 57.3 | 67.9 | 1.55 | 54.5
6 | O=C(O)[C@H](Cc1ccccc1)NS(=O)(=O)c1ccc(-c2ncc(-c3ccccc3)s2)cc1 [Compound B-12] | 1.44 | 25.9 | 66.9 | 3.69 | 9.3
7 | CSCC[C@@H](NS(=O)(=O)c1ccc(-c2ncc(-c3ccc(Cl)cc3)o2)cc1)C(=O)O [Compound A-36] | 16.3 | 127 | 226 | 2.98 | 140
8 | CC(C)[C@H](NS(=O)(=O)c1ccc(-c2ncc(-c3ccccc3)o2)cc1)C(=O)O [Compound A-22] | 7.84 | 53.3 | 144 | 2.69 | 5.31
9 | COc1ccc(-c2cnc(-c3ccc(S(=O)(=O)N[C@H](Cc4ccccc4)C(=O)O)cc3)o2)cc1 [Compound A-14] | 2.66 | 7.07 | 174 | 1.88 | 5.51
10 | O=C(O)[C@@H](Cc1ccccc1)NS(=O)(=O)c1ccc(-c2ncc(-c3ccccc3)s2)cc1 [Compound B-11] | 1.08 | 26.1 | 16.2 | 2.4 | 6.34
11 | COc1ccc(-c2cnc(-c3ccc(S(=O)(=O)N[C@H](CC(C)C)C(=O)O)cc3)s2)cc1 [Compound B-34] | 1.63 | 24.9 | 53.6 | 3.35 | 6.82
12 | C[C@@H](NS(=O)(=O)c1ccc(-c2ncc(-c3ccc(F)cc3)o2)cc1)C(=O)O [Compound A-6] | 9.71 | 233 | 368 | 12.5 | 234
13 | CC(C)[C@H](NS(=O)(=O)c1ccc(-c2ncc(-c3ccc(F)cc3)o2)cc1)C(=O)O [Compound A-26] | 514 | 569 | 1810 | 40.2 | –
14 | COc1ccc(-c2cnc(-c3ccc(S(=O)(=O)N[C@H](C)C(=O)O)cc3)o2)cc1 [Compound A-8] | 3.37 | 25.2 | 218 | 2.78 | 22.6
15 | CC(C)[C@H](NS(=O)(=O)c1ccc(-c2ncc(-c3ccc(F)cc3)s2)cc1)C(=O)O [Compound B-9] | 8.05 | 12.5 | 55 | 1.33 | 13.1
16 | O=C(O)[C@@H](Cc1c[nH]c2ccccc12)NS(=O)(=O)c1ccc(-c2ncc(-c3ccc(Cl)cc3)s2)cc1 [Compound B-51] | 0.276 | 66 | 4.24 | 0.761 | 2.66
17 | C[C@@H](NS(=O)(=O)c1ccc(-c2ncc(-c3ccc(Br)cc3)s2)cc1)C(=O)O [Compound B-29] | 0.313 | 45.2 | 5.82 | 0.47 | 2.6
18 | CSCC[C@@H](NS(=O)(=O)c1ccc(-c2ncc(-c3ccccc3)s2)cc1)C(=O)O [Compound B-45] | 2.15 | 29 | 26.3 | 2.66 | 17.5
19 | O=C(O)[C@H](Cc1ccccc1)NS(=O)(=O)c1ccc(-c2ncc(-c3ccc(Cl)cc3)o2)cc1 [Compound A-16] | 265 | – | 758 | 26.2 | 774
20 | C[C@H](NS(=O)(=O)c1ccc(-c2ncc(-c3ccc(Cl)cc3)o2)cc1)C(=O)O [Compound A-5] | – | – | – | 28.4 | –
